Converted amounts (≈) assume the structure as drawn. Read-outs that look alike come from different tables or passages of the source.

The target of assay [1] is human (hACC2) (Homo sapiens, UniProt O00763). As to the kind of experiment: In vitro ACC inhibition assay (ADP-Glo), hACC2. It is filed as biochemical. To be noted: 5 nM ACC2, 20 μM ATP, 20 μM acetyl-CoA. The procedure: The detailed procedure is as follows. […] 10 μL ADP glo reagent was added. […] 20 μL kinase detection reagent was added.
Assay [2] concerns C. albicans. As to the kind of experiment: Antifungal Activity Assay (broth microtiter MIC), C. albicans. It is filed as cell-based, Candida albicans. Particulars: Candida albicans, ATCC90028, 48 h, ATCC 90028, 3 replicates, MIC recorded at 48 h, read-out: MIC, C. albicans ATCC 90028. The procedure:
(§1) Compounds of the present invention were evaluated in an Antifungal Activity Assay. An exemplary procedure for the assay, which measures the susceptibility of various Candida species to antifungal compounds, follows. Compounds to be tested (including fluconazole and amphotericin B) were dissolved in DMSO to obtain a solution having a concentration of 1 mg/mL. These stock solutions were sterile filtered using a 0.22 um nylon syringe filter, then diluted in sterile water to achieve a final concentration of 128 μg/mL.
(§2) All species were grown from frozen stock by directly plating on to freshly prepared Sabouraud Dextrose agar (BD, Difco) and incubated overnight in ambient air at 35° C. for 24 h. A direct suspension was prepared in RPMI 1640+MOPS (Lonza, Biowhittaker) by taking individual colonies from the overnight cultures using sterile swabs soaked in sterile saline. The concentration of the suspension was determined using pre-determined standard curves. These suspensions were then diluted down to 5×10^3 CFU/mL to achieve a final concentration of 2.5×10^3 CFU/mL once added to the microtiter plate as per CLSI guidelines (M27-A3, Vol. 28 No. 14).
(§3) Broth microtiter MIC challenge plates were prepared following CLSI guidelines (M27-A3, Vol. 28 No. 14). The original CLSI guidelines focused on reading Candida MICs after 48 h of incubation. As reading after only 24 h offers a clear advantage of patient care, QC limits are being established for all drugs at 24 h. That being said there are no known interpretive breakpoints for amphotericin B at 24 h and the current fluconazole interpretive breakpoints are based on a 48 h reading. The MICs for the test compounds were recorded at 48 h. All MIC determinations were achieved by visually comparing the growth found in the antibiotic challenged wells to that of the growth control.

The subject of assay [3] is C. krusei. As to the kind of experiment: Antifungal Activity Assay (broth microtiter MIC), C. krusei. To be noted: Pichia kudriavzevii, ATCC6258, 48 h, ATCC 6258, 3 replicates, MIC recorded at 48 h, read-out: MIC, C. krusei ATCC 6258. The format is cell-based, Candida krusei. The procedure:
as §1, §2, §3

Assay [4] relates to C. parapsilosis. The assay can be described thus: Antifungal Activity Assay (broth microtiter MIC), C. parapsilosis. The format is cell-based, Candida parapsilosis. Particulars: Lodderomyces parapsilosis, ATCC22019, 48 h, ATCC 22019, 3 replicates, MIC recorded at 48 h, read-out: MIC, C. parapsilosis ATCC 22019. The procedure: as §1, §2, §3
Assay [5] concerns the target fungal (fACC2) (UniProt Q00955). To be noted: read-out: fACC2 (in vitro ACC2 Inhibition Assay, IC50), ADP-Glo, 5 nM ACC2, 20 μM ATP, 20 μM acetyl-CoA. In general terms: ADP-Glo first removes unused ATP, then detects ADP through luciferase.

fungal (fACC2), sequence (Q00955 whole entry): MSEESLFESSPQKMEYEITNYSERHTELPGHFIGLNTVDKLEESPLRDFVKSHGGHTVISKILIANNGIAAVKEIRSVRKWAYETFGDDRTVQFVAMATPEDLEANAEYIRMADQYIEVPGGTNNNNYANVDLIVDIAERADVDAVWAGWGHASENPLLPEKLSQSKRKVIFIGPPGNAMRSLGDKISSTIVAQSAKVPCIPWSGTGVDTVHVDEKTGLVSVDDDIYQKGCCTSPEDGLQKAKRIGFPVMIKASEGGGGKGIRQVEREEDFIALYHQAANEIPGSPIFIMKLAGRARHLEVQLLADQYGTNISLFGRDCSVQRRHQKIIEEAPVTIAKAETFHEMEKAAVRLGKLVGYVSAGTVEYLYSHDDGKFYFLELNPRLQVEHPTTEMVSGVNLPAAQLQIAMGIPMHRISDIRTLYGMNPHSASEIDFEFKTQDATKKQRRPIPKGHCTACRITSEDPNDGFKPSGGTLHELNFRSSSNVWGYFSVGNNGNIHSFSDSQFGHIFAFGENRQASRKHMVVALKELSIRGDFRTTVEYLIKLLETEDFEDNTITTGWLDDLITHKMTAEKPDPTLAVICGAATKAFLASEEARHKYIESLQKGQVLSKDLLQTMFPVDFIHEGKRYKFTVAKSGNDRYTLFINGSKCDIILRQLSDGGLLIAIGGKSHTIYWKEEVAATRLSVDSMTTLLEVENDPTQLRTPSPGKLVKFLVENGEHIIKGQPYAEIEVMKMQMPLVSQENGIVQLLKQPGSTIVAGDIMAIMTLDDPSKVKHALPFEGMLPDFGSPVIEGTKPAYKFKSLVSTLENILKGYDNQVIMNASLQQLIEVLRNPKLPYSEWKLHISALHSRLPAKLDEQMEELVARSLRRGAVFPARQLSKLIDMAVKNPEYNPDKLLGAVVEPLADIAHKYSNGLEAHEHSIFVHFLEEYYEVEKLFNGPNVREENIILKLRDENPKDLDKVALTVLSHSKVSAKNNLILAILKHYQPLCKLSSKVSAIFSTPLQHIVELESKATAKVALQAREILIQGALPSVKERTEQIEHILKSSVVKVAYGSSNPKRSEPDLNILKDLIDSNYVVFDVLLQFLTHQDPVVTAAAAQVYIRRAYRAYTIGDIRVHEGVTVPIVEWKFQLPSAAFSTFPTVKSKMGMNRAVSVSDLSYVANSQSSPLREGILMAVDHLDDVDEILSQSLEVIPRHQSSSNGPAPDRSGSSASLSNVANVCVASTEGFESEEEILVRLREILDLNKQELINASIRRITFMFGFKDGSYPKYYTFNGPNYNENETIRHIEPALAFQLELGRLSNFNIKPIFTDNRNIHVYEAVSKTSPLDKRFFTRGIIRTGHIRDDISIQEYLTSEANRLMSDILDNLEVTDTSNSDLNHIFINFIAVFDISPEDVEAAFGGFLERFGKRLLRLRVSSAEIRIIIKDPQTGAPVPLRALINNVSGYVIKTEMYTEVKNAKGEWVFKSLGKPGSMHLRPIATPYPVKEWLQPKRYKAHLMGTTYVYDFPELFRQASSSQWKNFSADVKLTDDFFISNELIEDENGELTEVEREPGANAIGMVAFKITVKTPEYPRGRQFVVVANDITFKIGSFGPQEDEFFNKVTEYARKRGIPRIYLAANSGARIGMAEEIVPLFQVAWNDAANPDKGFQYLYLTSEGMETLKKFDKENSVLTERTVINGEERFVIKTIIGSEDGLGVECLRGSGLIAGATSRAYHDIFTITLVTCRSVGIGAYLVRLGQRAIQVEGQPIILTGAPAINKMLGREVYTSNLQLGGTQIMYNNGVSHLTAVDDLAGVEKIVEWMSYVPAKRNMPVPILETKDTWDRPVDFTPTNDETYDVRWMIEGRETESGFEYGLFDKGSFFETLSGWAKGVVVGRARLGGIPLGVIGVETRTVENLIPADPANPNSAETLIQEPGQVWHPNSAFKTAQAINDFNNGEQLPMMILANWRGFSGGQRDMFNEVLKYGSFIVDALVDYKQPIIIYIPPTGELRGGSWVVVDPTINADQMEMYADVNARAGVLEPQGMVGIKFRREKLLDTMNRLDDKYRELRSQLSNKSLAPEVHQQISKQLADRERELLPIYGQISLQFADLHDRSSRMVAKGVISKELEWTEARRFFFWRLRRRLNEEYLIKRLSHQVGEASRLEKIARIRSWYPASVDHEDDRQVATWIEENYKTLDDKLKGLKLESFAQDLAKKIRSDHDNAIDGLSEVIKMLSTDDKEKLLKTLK
human (hACC2), sequence (O00763 whole entry): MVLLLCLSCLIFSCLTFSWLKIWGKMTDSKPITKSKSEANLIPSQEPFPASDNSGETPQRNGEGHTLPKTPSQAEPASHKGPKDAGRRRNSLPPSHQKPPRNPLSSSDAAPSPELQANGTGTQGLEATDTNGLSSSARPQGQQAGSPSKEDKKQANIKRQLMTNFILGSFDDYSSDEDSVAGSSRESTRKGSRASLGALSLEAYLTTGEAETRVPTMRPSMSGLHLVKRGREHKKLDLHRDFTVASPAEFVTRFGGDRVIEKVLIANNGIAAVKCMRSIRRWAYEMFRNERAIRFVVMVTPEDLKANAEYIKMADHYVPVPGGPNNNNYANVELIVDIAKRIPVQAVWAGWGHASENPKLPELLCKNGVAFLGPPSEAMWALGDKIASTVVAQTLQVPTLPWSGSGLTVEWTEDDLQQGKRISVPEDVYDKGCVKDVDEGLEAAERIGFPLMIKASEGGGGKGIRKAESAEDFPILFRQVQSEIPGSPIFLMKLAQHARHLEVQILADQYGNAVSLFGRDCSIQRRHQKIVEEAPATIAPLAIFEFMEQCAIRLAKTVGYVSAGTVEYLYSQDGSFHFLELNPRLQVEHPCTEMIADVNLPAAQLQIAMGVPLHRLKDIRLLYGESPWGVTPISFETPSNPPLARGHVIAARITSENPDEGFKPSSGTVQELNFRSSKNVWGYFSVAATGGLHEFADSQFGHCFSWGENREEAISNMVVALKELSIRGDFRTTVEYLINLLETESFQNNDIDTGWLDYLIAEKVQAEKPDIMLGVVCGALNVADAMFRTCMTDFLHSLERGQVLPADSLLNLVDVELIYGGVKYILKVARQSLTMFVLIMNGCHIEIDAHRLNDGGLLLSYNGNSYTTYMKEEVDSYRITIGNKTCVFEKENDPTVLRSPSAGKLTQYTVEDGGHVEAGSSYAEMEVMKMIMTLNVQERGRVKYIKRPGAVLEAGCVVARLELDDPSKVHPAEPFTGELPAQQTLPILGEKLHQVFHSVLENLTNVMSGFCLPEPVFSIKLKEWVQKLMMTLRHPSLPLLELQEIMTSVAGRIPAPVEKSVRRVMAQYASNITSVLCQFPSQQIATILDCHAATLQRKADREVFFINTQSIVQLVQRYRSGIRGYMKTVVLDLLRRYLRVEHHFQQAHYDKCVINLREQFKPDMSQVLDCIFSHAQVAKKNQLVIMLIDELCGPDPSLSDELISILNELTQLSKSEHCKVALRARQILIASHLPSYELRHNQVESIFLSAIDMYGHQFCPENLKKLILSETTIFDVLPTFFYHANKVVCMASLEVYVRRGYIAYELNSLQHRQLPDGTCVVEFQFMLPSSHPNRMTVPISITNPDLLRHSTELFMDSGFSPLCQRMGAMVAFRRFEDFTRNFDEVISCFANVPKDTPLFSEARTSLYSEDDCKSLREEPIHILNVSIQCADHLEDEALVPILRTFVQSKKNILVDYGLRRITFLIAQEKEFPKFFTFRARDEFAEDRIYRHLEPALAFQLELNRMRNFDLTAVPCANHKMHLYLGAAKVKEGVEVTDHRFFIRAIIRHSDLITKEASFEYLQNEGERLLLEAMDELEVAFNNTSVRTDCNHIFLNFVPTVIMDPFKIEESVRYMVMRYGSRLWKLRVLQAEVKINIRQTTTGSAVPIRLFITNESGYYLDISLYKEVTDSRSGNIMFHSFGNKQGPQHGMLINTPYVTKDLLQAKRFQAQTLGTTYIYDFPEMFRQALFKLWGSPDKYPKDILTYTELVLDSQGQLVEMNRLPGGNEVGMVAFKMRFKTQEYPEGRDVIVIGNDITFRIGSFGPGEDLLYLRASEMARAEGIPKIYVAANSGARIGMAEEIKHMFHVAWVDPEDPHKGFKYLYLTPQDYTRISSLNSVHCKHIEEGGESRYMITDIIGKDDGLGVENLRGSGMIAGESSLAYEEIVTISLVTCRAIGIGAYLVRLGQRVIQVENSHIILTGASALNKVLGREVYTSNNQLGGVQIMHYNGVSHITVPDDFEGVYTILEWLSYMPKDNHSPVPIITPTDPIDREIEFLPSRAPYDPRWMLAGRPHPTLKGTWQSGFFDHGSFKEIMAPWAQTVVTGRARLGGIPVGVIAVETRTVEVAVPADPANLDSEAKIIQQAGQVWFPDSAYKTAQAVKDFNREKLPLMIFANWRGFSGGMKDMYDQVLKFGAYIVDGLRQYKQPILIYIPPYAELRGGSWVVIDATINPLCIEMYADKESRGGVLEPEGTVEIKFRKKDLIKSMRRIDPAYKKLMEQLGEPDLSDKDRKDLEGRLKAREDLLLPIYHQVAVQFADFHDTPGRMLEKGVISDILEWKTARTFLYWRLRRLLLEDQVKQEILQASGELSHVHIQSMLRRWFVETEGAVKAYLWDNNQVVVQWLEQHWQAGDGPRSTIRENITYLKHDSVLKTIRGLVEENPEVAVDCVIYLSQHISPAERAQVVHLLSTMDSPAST

The term IC50 denotes the concentration that inhibits the measured activity by half. As a reminder, the MIC is the smallest concentration in the dilution series that meets the test's criterion for growth inhibition. Consider `COc1ccc(F)cc1[C@H](Cn1c(=O)n(C(C)(C)C(=O)N2CCCC2)c(=O)c2c(C)c(-n3nccn3)sc21)OCC(O)C(F)(F)F` (stereo partly shown) [Compound I-113], for which the IC50 in assay [1] (Table 2a) was in the range of 1 to 5 nM; in assay [1] (Table 2b, additional results) it was 1 to 5 nM; in assay [5] (Table 2a), 1 to 5 nM; in assay [5] (Table 2b, additional results) it was 1 to 5 nM. Moreover, the MIC was 0.25 to 1 µg/mL (≈ 0.374 to 1.5 µM) in assay [2] (Table 3a); greater than 4.01 µg/mL in assay [2] (Table 3b (additional results)); 0.25 to 1 µg/mL (≈ 0.374 to 1.5 µM) in assay [3] (Table 3a); 2.01 to 4 µg/mL (≈ 3.01 to 5.98 µM) in assay [3] (Table 3b (additional results)); 1.1 to 2 µg/mL (≈ 1.65 to 2.99 µM) in assay [4] (Table 3a); 1.01 to 2 µg/mL (≈ 1.51 to 2.99 µM) in assay [4] (Table 3b (additional results)).

Regarding `C=CCN(C)C(=O)C(C)(C)n1c(=O)c2c(C)c(-n3nccn3)sc2n(C[C@H](OC(C)C)c2cc(F)ccc2OC)c1=O` [Compound I-115], the IC50 in assay [1] (Table 2a) was in the range of 5 to 10 nM; in assay [1] (Table 2b, additional results), 5 to 10 nM; in assay [5] (Table 2a) it was 1 to 5 nM; in assay [5] (Table 2b, additional results), 1 to 5 nM. The MIC in assay [2] (Table 3a) was 2.1 to 4 µg/mL (≈ 3.51 to 6.68 µM); in assay [2] (Table 3b (additional results)), 1.01 to 2 µg/mL (≈ 1.69 to 3.34 µM); in assay [3] (Table 3a), 1.1 to 2 µg/mL (≈ 1.84 to 3.34 µM); in assay [3] (Table 3b (additional results)), 1.01 to 2 µg/mL (≈ 1.69 to 3.34 µM); in assay [4] (Table 3a) it was 1.1 to 2 µg/mL (≈ 1.84 to 3.34 µM); in assay [4] (Table 3b (additional results)) it was greater than 4.01 µg/mL.

Consider `Cc1c(-n2nccn2)sc2c1c(=O)n(C(C)(C)C(=O)NC(C)C)c(=O)n2C[C@H](OC1CCOCC1)c1cc(F)ccc1OCC#N` [Compound I-116], for which the IC50 fell in the range of 5 to 10 nM in assay [1] (Table 2a); 5 to 10 nM in assay [1] (Table 2b, additional results); 0.4 to 1 nM in assay [5] (Table 2a); 0.3 to 1 nM in assay [5] (Table 2b, additional results). The MIC in assay [2] (Table 3a), in assay [2] (Table 3b (additional results)), in assay [3] (Table 3a), in assay [3] (Table 3b (additional results)), in assay [4] (Table 3a) and in assay [4] (Table 3b (additional results)) was 0.25 to 1 µg/mL (≈ 0.382 to 1.53 µM) in each case.

Consider `COc1ccc(F)cc1[C@H](Cn1c(=O)n(C(C)(C)C(=O)N2CC=CC2)c(=O)c2c(C)c(-n3nccn3)sc21)OC[C@H](C)O` [Compound I-117], for which the IC50 in assay [1] (Table 2a) was in the range of 5 to 10 nM; in assay [1] (Table 2b, additional results) it was 5 to 10 nM; in assay [5] (Table 2a), 0.4 to 1 nM; in assay [5] (Table 2b, additional results), 0.3 to 1 nM. In addition, the MIC in assay [2] (Table 3a) is 2.1 to 4 µg/mL (≈ 3.43 to 6.53 µM); in assay [2] (Table 3b (additional results)), 1.01 to 2 µg/mL (≈ 1.65 to 3.26 µM); in assay [3] (Table 3a) it was 0.25 to 1 µg/mL (≈ 0.408 to 1.63 µM); in assay [3] (Table 3b (additional results)) it was greater than 4.01 µg/mL; in assay [4] (Table 3a), 2.1 to 4 µg/mL (≈ 3.43 to 6.53 µM); in assay [4] (Table 3b (additional results)), 2.01 to 4 µg/mL (≈ 3.28 to 6.53 µM).

Turning to `COc1ccc(F)cc1[C@H](Cn1c(=O)n(C(C)(C)C(=O)N2CCCC2)c(=O)c2c(C)c(-n3nccn3)sc21)OCCCO` [Compound I-118], the IC50 in assay [1] (Table 2a) fell in the range of 1 to 5 nM; in assay [1] (Table 2b, additional results) it was 1 to 5 nM; in assay [5] (Table 2a) it was 0.4 to 1 nM; in assay [5] (Table 2b, additional results) it was 0.3 to 1 nM. The MIC lay within 1.1 to 2 µg/mL (≈ 1.79 to 3.25 µM) in assay [2] (Table 3a); 1.01 to 2 µg/mL (≈ 1.64 to 3.25 µM) in assay [2] (Table 3b (additional results)); 0.25 to 1 µg/mL (≈ 0.407 to 1.63 µM) in assay [3] (Table 3a); 1.01 to 2 µg/mL (≈ 1.64 to 3.25 µM) in assay [3] (Table 3b (additional results)); 2.1 to 4 µg/mL (≈ 3.42 to 6.51 µM) in assay [4] (Table 3a); 1.01 to 2 µg/mL (≈ 1.64 to 3.25 µM) in assay [4] (Table 3b (additional results)).

`COc1ccc(F)cc1[C@H](Cn1c(=O)n(C(C)(C)C(=O)NC(C)C)c(=O)c2c(C)c(-n3nccn3)sc21)OCCCO` [Compound I-119]: the 50% inhibitory concentration (IC50) in assay [1] (Table 2a) is 1 to 5 nM; in assay [1] (Table 2b, additional results), 1 to 5 nM; in assay [5] (Table 2a), 0.4 to 1 nM; in assay [5] (Table 2b, additional results) it was 0.3 to 1 nM. In addition, the MIC in assay [2] (Table 3a) was in the range of 0.25 to 1 µg/mL (≈ 0.415 to 1.66 µM); in assay [2] (Table 3b (additional results)), 0.25 to 1 µg/mL (≈ 0.415 to 1.66 µM); in assay [3] (Table 3a), 0.06 to 0.24 µg/mL (≈ 0.0996 to 0.398 µM); in assay [3] (Table 3b (additional results)) it was 0.25 to 1 µg/mL (≈ 0.415 to 1.66 µM); in assay [4] (Table 3a) it was 0.25 to 1 µg/mL (≈ 0.415 to 1.66 µM); in assay [4] (Table 3b (additional results)), 0.25 to 1 µg/mL (≈ 0.415 to 1.66 µM).

Regarding `C=CCNC(=O)C(C)(C)n1c(=O)c2c(C)c(-n3nccn3)sc2n(C[C@H](OC(C)C)c2cc(F)ccc2OC)c1=O` [Compound I-120], the half-maximal inhibitory concentration (IC50) in assay [1] (Table 2a) was in the range of 5 to 10 nM; in assay [1] (Table 2b, additional results) it was 5 to 10 nM; in assay [5] (Table 2a), 1 to 5 nM; in assay [5] (Table 2b, additional results) it was 1 to 5 nM. For the same compound, the MIC in assay [2] (Table 3a) fell in the range of 0.25 to 1 µg/mL (≈ 0.428 to 1.71 µM); in assay [2] (Table 3b (additional results)), 1.01 to 2 µg/mL (≈ 1.73 to 3.42 µM); in assay [3] (Table 3a) it was 0.25 to 1 µg/mL (≈ 0.428 to 1.71 µM); in assay [3] (Table 3b (additional results)) it was 0.25 to 1 µg/mL (≈ 0.428 to 1.71 µM); in assay [4] (Table 3a), 0.25 to 1 µg/mL (≈ 0.428 to 1.71 µM); in assay [4] (Table 3b (additional results)) it was 2.01 to 4 µg/mL (≈ 3.44 to 6.84 µM).

For the origin of these results see US10800791B2, “Triazole ACC inhibitors and uses thereof” (Gilead Apollo, LLC, priority 2015, dated 2020).
